From the supplement of paper PMC8372320

Test: photocatalytic hydrogen evolution rate (per 5 mg catalyst); higher = more photocatalytic H2 evolution; extreme values may be limits of the assay
Settings: catalyst mass (mg): 5; Pt cocatalyst (wt%): 3; sacrificial medium: triethylamine/methanol/water 1:1:1
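Note: aromatic molecules in triethylamine/methanol/water with Pt photoreduced in situ, irradiated 3 h under a 1 sun AM 1.5G solar simulator (350–1000 nm), H2 quantified by headspace gas chromatography; listed molecule itself used as the photocatalyst at 5 mg per vial.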

Structure (SMILES) | photocatalytic hydrogen evolution rate [µmol/h]
Nc1ccc2c(c1)C(=O)c1ccc(N)cc1C2=O | 0.006
Brc1ccc(-c2ccc(Br)cn2)nc1 | 0.0242
Brc1ccc(C(c2ccc(Br)cc2)(c2ccc(Br)cc2)c2ccc(Br)cc2)cc1 | 0.0679
N#Cc1cccc(N)c1 | 0
C(=C\c1ccccc1)/c1ccccc1 | 0
c1ccc(-c2ccc(-c3ccc(-c4ccc(-c5ccccc5)cc4)cc3)cc2)cc1 | 0
Nc1c(F)c(F)c(-c2c(F)c(F)c(N)c(F)c2F)c(F)c1F | 0
O=Cc1cccc(-c2ccccn2)c1 | 2.43
Cc1cc2c(cc1N)S(=O)(=O)c1cc(N)c(C)cc1-2 | 0
N#Cc1cccc(-c2cccc(C#N)n2)n1 | 0.0301
N#Cc1ccnc(Br)c1 | 0.0187
ClCc1c2ccccc2c(CCl)c2ccccc12 | 0
c1ccc(-c2ccc(-c3ccc(-c4ccccc4)cc3)cc2)cc1 | 0
O=Cc1ccccc1P(c1ccccc1)c1ccccc1 | 0.079
N#CCc1nc2ccccc2s1 | 0
O=Cc1cccc(C(=O)O)c1 | 1.06
CC1(C)OB(c2ccc(B3OC(C)(C)C(C)(C)O3)c3nsnc23)OC1(C)C | 0
O=Cc1ccc2ccc3cccc4ccc1c2c34 | 10.3
N#CCC(=O)c1ccc2c(c1)CCCC2 | 0
O=C1c2ccc(O)cc2C(=O)c2ccc(O)cc21 | 2.69
O=Cc1ccc2ncccc2c1 | 3.11
Nc1ccc(N)c2c1C(=O)c1c(N)ccc(N)c1C2=O | 0
Cc1cc(C)c(Nc2ccc(Nc3c(C)cc(C)cc3C)c3c2C(=O)c2ccccc2C3=O)c(C)c1 | 0.331
Nc1ccc(N)c(S(=O)(=O)O)c1 | 0

Structure (SMILES) | photocatalytic hydrogen evolution rate [µmol/h]
c1ccc(-c2c3ccccc3c(-c3ccccc3)c3c(-c4ccccc4)c4ccccc4c(-c4ccccc4)c23)cc1 | 0.0539
N#CCc1ccc(-c2ccc(CC#N)cn2)nc1 | 0.0108
c1ccc(-c2cc(-c3ccccc3)cc(-c3ccccc3)c2)cc1 | 0.0457
N#CC(C#N)=C1CC(=C(C#N)C#N)c2ccccc21 | 0
Brc1ccc(-c2ccc(Br)cc2)cc1 | 0
Nc1ccc2ccc3cccc4ccc1c2c34 | 0
C#Cc1ccc(C#C)cc1 | 0
O=Cc1sc(C=O)c(Br)c1Br | 0.167
Nc1ccc(C(=O)O)cc1 | 0.059
NNC(=O)c1cc(Br)c(O)c(Br)c1 | 0
c1ccc2cc3cc4ccccc4cc3cc2c1 | 0.162
O=C1c2cc3ccccc3cc2C(=O)c2cc3ccccc3cc21 | 6.86
c1ccc(N=C(Nc2ccccc2)Nc2ccccc2)cc1 | 0
COc1cc(C=O)cc(OC)c1O | 0
O=Cc1ccc(N2CCS(=O)(=O)CC2)cc1 | 2.73
Cc1ncc[nH]1 | 0
OCc1cccc2cc3cccc(CO)c3cc12 | 0.00242
Nc1c(Br)cnc(Cl)c1Br | 0
N#Cc1ccc(-c2ccc(C#N)c(O)c2)cc1 | 8.34
CC1(C)c2cc(Br)ccc2-c2ccc(Br)cc21 | 0.0799
Nc1c(Br)cnc(Br)c1N | 0
Oc1cccc2cccnc12 | 0
O=c1c2ccccc2n(-c2ccccc2)c2ccccc12 | 3.33
N#Cc1c2ccccc2c(C#N)c2ccccc12 | 0.0714
